Data: ChEMBL document CHEMBL1201862, “PubChem BioAssay data set” (2004)
Each block holds one compound with its values, some of them ahead of it. Activity calls are given as the source filed them.

Key:
[1] = molecular target: T1, Protein skinhead-1 (Caenorhabditis elegans, UniProt P34707); assay type: functional
T1 sequence (P34707 whole entry): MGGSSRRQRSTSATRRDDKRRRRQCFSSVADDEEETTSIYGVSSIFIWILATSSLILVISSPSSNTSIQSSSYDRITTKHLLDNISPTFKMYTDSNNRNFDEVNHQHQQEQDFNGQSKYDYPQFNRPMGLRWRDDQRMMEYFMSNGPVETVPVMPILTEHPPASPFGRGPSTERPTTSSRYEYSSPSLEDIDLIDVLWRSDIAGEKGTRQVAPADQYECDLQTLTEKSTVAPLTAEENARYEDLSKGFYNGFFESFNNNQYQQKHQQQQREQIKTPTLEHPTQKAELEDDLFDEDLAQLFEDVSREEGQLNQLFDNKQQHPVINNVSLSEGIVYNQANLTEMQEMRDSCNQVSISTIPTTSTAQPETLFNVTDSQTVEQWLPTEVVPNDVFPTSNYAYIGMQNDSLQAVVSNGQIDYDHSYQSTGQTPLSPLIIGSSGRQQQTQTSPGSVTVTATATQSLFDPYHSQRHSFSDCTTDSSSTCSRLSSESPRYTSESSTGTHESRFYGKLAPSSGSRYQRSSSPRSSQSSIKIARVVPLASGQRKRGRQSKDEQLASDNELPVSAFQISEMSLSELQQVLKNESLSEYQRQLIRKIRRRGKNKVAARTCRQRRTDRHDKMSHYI

[2] = molecular target: FAD-linked sulfhydryl oxidase ALR (Homo sapiens, UniProt P55789); assay: inhibitors of human ALR sulfhydryl oxidase, dose response, biochemical, H2O2 detection, luminescence, cherry-pick (AID 493248)
[3] = C. albicans growth with fluconazole, confirmation, fluorescence, retest (AID 2467); assay type: functional, cell-based
[4] = NIH-3T3 fibroblast cytotoxicity, dose response, cytotoxicity control, cell-based, fluorescence, Alamar Blue, secondary assay (AID 2327); assay type: functional;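 note: NIH-3T3 mouse fibroblasts cultured with fluconazole at 8 µg/mL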
[5] = intracellular Trypanosoma cruzi inhibitors in host cells – cell-based, plate reader, cherry-pick samples, set 3, dose response (AID 651818); assay type: functional;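 note: compounds incubated with infected cells for about four days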
[6] = molecular target: T2, High affinity choline transporter 1 (Homo sapiens, UniProt Q9GZV3); assay: CHT inhibitors, dose response, cell-based, 5-point CRC, membrane potential dye (AID 504840); assay type: functional
T2 sequence (Q9GZV3 whole entry): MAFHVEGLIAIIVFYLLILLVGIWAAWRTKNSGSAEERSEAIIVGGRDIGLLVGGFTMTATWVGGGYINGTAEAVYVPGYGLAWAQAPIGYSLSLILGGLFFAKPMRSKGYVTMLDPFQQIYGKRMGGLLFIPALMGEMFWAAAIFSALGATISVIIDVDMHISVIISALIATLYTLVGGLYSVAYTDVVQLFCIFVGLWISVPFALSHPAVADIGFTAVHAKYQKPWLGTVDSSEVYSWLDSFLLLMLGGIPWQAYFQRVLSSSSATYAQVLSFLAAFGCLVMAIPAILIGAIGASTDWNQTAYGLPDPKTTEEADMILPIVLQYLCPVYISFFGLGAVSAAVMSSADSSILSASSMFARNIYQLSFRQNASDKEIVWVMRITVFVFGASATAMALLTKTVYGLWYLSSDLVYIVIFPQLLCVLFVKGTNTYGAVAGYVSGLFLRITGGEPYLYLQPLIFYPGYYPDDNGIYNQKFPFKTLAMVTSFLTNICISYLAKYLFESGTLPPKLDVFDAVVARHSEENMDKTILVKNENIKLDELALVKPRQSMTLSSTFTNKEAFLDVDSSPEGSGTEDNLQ

[7] = growth suppression of PTEN-null colon cells, dose response, cell-based, HCT116 PTEN knockout (AID 1047); assay type: functional;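 note: HCT116 colon tumor cells with PTEN knocked out; cells exposed to compound for 60 hours before readout; potency for loss of cell viability measured by luminescence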
[8] = molecular target: T3, Corticotropin-releasing factor receptor 2/Corticotropin-releasing factor-binding protein (Homo sapiens, UniProt P24387+Q13324); assay: activators of CRF receptor 2 with binding protein – uHTS hits, confirmation (AID 602473); assay type: functional; details: read-out: EC50_Mean
T3 sequence (Q13324 whole entry): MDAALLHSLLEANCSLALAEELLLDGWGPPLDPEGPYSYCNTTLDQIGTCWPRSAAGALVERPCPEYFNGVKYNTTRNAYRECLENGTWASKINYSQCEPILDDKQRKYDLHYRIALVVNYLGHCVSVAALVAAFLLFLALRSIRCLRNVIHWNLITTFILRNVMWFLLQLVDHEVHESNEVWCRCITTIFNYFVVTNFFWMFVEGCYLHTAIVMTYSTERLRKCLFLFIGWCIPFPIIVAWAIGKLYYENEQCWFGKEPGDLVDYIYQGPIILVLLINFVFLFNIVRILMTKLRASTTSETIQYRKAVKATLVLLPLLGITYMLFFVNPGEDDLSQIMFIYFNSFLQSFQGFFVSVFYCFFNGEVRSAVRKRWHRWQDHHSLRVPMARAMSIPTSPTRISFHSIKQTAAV
T3 sequence (P24387 whole entry): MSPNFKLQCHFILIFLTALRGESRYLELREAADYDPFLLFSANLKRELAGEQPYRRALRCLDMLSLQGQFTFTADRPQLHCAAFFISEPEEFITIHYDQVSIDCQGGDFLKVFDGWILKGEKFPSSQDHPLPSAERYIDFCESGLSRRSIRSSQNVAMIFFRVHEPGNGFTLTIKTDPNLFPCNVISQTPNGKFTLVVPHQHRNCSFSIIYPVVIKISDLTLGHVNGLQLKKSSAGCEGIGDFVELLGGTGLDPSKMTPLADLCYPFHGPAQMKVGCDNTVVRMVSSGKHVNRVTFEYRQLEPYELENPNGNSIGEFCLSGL

[9] = growth suppression of beta-catenin-knockout colon cells, dose response, cell-based, HCT116, human colon tumor (AID 1045); assay type: functional;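 note: HCT116 colon tumor cells with beta catenin knocked out; cells exposed to compound for 60 hours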
[10] = molecular target: T4, Polyadenylate-binding protein 1 (Homo sapiens, UniProt P11940); assay: PABP1 MLLE–PAM2 interaction inhibitors, dose response, miRNA deadenylation inhibitor project, biochemical, fluorescence polarization, Cy5-PAM2 peptide, secondary (AID 602260); assay type: functional; details: read-out: IC50_Mean
[11] = molecular target: T4, Polyadenylate-binding protein 1; assay: PABP1 MLLE–PAM2 binding inhibitor potency, dose response, biochemical, fluorescence polarization, FITC-PAM2 peptide (AID 602259); assay type: functional; details: read-out: IC50_Mean
[12] = molecular target: T5, Rac GTPase-activating protein 1 (Homo sapiens, UniProt Q9H0H5); assay: MgcRacGAP GTPase-activating activity inhibitors, confirmation, biochemical, ADP Hunter fluorescence, primary and confirmatory (AID 624330); assay type: functional
T5 sequence (Q9H0H5 whole entry): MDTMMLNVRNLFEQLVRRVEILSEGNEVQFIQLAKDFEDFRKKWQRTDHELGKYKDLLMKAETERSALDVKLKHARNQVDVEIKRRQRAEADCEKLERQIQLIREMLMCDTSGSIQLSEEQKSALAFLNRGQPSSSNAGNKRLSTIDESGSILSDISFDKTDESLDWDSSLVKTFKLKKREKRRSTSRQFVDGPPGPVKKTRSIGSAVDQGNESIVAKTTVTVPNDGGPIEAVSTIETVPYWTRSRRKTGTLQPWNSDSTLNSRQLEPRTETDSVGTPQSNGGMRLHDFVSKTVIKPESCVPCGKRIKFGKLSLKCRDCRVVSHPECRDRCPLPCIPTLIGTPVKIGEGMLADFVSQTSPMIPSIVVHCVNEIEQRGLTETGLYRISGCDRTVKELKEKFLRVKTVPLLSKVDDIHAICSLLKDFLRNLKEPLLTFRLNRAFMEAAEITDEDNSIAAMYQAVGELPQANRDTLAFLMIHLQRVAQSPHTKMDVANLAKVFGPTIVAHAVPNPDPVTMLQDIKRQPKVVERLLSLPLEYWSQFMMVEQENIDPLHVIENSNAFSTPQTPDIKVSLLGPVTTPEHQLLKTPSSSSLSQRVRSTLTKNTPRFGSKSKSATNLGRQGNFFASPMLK

[13] = molecular target: T6, Calpain-2 catalytic subunit (Sus scrofa, UniProt P43367); assay: pig calpain II inhibitor potency, dose response, biochemical, fluorogenic peptide substrate (AID 1420); assay type: functional
T6 sequence (P43367 whole entry): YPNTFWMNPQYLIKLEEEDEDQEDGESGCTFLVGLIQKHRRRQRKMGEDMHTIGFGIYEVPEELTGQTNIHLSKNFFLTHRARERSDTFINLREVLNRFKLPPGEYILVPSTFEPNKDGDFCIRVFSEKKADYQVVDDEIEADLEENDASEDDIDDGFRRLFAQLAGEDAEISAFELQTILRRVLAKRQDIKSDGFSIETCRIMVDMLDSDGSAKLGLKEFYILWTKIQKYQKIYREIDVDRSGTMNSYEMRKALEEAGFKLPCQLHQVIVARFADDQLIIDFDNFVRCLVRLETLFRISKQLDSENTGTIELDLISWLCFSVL

FAD-linked sulfhydryl oxidase ALR, sequence (P55789 whole entry): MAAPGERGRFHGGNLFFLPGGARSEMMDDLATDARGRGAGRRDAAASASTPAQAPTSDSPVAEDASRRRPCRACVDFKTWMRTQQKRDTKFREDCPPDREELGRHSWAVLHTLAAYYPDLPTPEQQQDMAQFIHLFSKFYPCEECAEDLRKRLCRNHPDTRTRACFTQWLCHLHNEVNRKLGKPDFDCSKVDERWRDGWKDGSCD
T4 sequence (P11940 whole entry): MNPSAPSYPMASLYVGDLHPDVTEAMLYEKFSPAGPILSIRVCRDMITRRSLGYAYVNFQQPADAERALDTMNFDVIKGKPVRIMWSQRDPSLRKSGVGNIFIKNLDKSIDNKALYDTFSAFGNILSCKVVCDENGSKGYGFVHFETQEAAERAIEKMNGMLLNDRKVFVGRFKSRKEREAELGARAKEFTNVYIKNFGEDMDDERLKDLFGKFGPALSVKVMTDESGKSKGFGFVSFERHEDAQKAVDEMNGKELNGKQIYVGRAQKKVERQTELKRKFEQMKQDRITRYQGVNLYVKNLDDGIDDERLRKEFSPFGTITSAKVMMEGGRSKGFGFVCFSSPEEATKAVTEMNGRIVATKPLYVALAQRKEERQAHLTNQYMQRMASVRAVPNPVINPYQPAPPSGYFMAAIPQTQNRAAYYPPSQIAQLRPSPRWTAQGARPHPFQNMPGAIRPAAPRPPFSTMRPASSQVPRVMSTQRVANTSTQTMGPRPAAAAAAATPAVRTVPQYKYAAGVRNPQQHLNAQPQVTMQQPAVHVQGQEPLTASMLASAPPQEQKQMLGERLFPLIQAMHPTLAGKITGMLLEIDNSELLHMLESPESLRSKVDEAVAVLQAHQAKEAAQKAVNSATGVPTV

IC50 [1]: > 100 µM (inactive)
Compound: c1ccc(-c2ccc(-c3nc(-c4cccnc4)no3)cc2)cc1

AC50 [2]: 3.31 µM (active)
Compound: O=C(NCc1cccnc1)c1ccc2c(c1)N(Cc1ccccc1)CCS2

Compound: COc1ccc(C(C(=O)NC2CCCCC2)N(Cc2cccs2)C(=O)Cc2c[nH]c3ccccc23)cc1 (stereo not drawn)
EC50 [3]: > 38 µM (not active) | IC50 [1]: > 100 µM (inactive) | EC50 [4]: > 150 µM (inactive)

IC50 [1]: > 100 µM (inactive)
Compound: Brc1cccc(-c2nc3ccc(Br)cn3c2Cc2ccsc2)c1

Compound: C[C@H](CO)N1C[C@H](C)[C@H](CN(C)Cc2ccc(C(=O)Nc3ccccc3N)cc2)Oc2c(NC(=O)Nc3ccc(F)cc3)cccc2C1=O
AC50 [5]: 1.06 µM (active)

IC50 [6]: 0.794 µM (active) | AC50 [2]: 6.86 µM (active)
Compound: Cc1ccc(S(=O)(=O)N2[C@@H](c3ccc(Cl)cc3)C(C(=O)O)=CC[C@H]2c2ccc(Cl)c(Cl)c2)cc1

AC50 [2]: 4.37 µM (active)
Compound: O=C1CC(=O)N(c2ccccc2)N1c1ccccc1

AC50 [2]: 4.38 µM (active)
Compound: Cc1cc(N2CCN(c3ccccc3)CC2)nc(N)n1

Compound: C[C@H](CO)N1C[C@H](C)[C@@H](CN(C)Cc2ccc(C(=O)Nc3ccccc3N)cc2)Oc2c(NS(=O)(=O)c3ccccc3)cccc2C1=O
AC50 [5]: 4.71 µM (active)

Compound: C#CC[N+](C)(C)CCCCCCCC
EC50 [7]: 13.6 µM (active) | EC50 [8]: > 53 µM (inactive) | EC50 [9]: 16 µM (active)

Compound: N#Cc1cc2c(nc1SCC(=O)Nc1cc(Cl)ccc1Cl)C1CCN2CC1
EC50 [7]: 6 µM (active) | EC50 [9]: 3.02 µM (active)

AC50 [2]: 0.301 µM (active) | IC50 [10]: > 66 µM (inactive) | IC50 [11]: > 66 µM (inactive)
Compound: Fc1ccc(-c2ccnc(S)n2)cc1

Compound: CN(C)CCNC(=O)c1ccc(COc2ccc(Cl)cc2Cl)cc1
EC50 [7]: 10.7 µM (active) | EC50 [9]: 9 µM (active)

Compound: C[C@@H]1CN([C@@H](C)CO)C(=O)c2cccc(NC(=O)CCCCCC(=O)Nc3ccccc3N)c2O[C@H]1CN(C)Cc1ccccc1
AC50 [5]: 2.43 µM (active)

Compound: COc1ccc(NS(=O)(=O)c2ccc(N/N=C/c3ccc(N4CCOCC4)cc3)c([N+](=O)[O-])c2)cc1
EC50 [7]: 6.25 µM (active) | EC50 [9]: 5.68 µM (active)

IC50 [1]: 21.3 µM (active)
Compound: Nc1ccc(C=C2C=Cc3ccccc32)cc1

AC50 [2]: 0.58 µM (active)
Compound: CC(=O)NNc1nc(-c2ccc(NC(C)=O)cc2)cs1

IC50 [1]: 39.8 µM (active)
Compound: O=[N+]([O-])c1cccc(/C=C/c2ccccn2)c1

Compound: O=C(C1CCCN(S(=O)(=O)c2ccc(F)cc2)C1)N(Cc1cccs1)C1CC1 (stereo not drawn)
EC50 [7]: 51.6 µM (active) | EC50 [9]: 137 µM (active)

Compound: Cc1noc(C)c1S(=O)(=O)Nc1cccc2c1O[C@H](CN(C)Cc1ccc(C(=O)Nc3ccccc3N)cc1)[C@H](C)CN([C@@H](C)CO)C2=O
AC50 [5]: 2.03 µM (active)

Compound: C[C@@H]1CN([C@@H](C)CO)C(=O)c2cccc(NC(=O)Nc3ccc4c(c3)OCO4)c2O[C@@H]1CN(C)Cc1ccc(Oc2ccccc2)cc1
AC50 [5]: 3.77 µM (active)

Compound: C[C@@H]1CCCCO[C@H](CN(C)C(=O)Nc2ccc(C(F)(F)F)cc2)[C@@H](C)CN([C@H](C)CO)C(=O)c2cc(NS(=O)(=O)c3ccc(Cl)cc3)ccc2O1
AC50 [5]: 4.76 µM (active)

AC50 [2]: 2.3 µM (active) | IC50 [12]: 47.9 µM (active)
Compound: COc1cc(/C=N/n2c(S)nnc2C2CCCCC2)ccc1O

Compound: C[C@H](CO)N1C[C@H](C)[C@H](CN(C)S(=O)(=O)c2ccc(F)cc2)Oc2ccc(NC(=O)Nc3ccc(C(F)(F)F)cc3)cc2CC1=O
AC50 [5]: 2.56 µM (active)

IC50 [1]: > 100 µM (inactive)
Compound: Cc1cccc(NC(=O)c2ccc3c(c2)C(=O)N(c2ccccc2C)C3=O)n1

Compound: COc1cc(C2C(C#N)=C(C)N=C3C2=C(O)c2ccccc23)cc(OC)c1OC (stereo not drawn)
EC50 [7]: 16.1 µM (active) | EC50 [9]: 21.5 µM (active)

Compound: C[C@H]1CN([C@@H](C)CO)C(=O)c2cccc(NC(=O)CCCCCC(=O)Nc3ccccc3N)c2O[C@H]1CN(C)Cc1ccc(Cl)c(Cl)c1
AC50 [5]: 3.18 µM (active)

IC50 [10]: > 66 µM (inactive) | IC50 [11]: > 66 µM (inactive) | IC50 [13]: 36.7 µM (not active)
Compound: CCCN(CCC)C(=S)NC(=O)c1ccc(-c2ccccc2)cc1
